In patent US6022696A, “Methods of identifying agonists or antagonists of angiotensin IV” (Washington State University Research Foundation, priority 1998, dated 2000):
Entries after “also recorded” stand apart in the source; their conditions may differ. Like-named read-outs stand apart in the source and are kept apart here. Non-standard residues stand in square brackets, D forms with d. Residues, ends and D or L forms follow the SMILES beside them. No end group written: not given here. NMeI = CC[C@H](C)[C@H](NC)C(=O)O

What was measured:
[1] = Stability of angiotensin peptides in binding assay buffer / assay conditions; assay type: physicochemical
AT1 receptor = target: T1, AT1 receptor (Bos taurus, UniProt P25104); assay type: binding, bovine
T1 construct: from tissue; host or cells: bovine adrenal cortex membranes
T1 sequence (P25104 1-359): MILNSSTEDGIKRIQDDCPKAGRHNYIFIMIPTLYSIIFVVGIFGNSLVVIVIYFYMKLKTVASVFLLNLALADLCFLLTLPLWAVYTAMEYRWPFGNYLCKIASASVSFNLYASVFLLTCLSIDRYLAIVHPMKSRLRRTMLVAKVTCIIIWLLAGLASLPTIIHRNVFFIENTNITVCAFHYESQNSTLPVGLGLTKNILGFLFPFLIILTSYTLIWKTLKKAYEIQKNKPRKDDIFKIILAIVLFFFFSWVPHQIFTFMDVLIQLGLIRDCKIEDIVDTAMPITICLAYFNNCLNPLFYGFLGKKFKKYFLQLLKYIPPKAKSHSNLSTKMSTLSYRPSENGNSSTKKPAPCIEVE

[2] = arterial and venous blood in man; cited from earlier work
AT4 receptor [3] = target: T2, AT4 receptor (Bos taurus, UniProt F1N1Q8); assay: 125I-AIV binding and competition, bovine adrenal cortical membranes
T2 sequence (F1N1Q8 1-1022): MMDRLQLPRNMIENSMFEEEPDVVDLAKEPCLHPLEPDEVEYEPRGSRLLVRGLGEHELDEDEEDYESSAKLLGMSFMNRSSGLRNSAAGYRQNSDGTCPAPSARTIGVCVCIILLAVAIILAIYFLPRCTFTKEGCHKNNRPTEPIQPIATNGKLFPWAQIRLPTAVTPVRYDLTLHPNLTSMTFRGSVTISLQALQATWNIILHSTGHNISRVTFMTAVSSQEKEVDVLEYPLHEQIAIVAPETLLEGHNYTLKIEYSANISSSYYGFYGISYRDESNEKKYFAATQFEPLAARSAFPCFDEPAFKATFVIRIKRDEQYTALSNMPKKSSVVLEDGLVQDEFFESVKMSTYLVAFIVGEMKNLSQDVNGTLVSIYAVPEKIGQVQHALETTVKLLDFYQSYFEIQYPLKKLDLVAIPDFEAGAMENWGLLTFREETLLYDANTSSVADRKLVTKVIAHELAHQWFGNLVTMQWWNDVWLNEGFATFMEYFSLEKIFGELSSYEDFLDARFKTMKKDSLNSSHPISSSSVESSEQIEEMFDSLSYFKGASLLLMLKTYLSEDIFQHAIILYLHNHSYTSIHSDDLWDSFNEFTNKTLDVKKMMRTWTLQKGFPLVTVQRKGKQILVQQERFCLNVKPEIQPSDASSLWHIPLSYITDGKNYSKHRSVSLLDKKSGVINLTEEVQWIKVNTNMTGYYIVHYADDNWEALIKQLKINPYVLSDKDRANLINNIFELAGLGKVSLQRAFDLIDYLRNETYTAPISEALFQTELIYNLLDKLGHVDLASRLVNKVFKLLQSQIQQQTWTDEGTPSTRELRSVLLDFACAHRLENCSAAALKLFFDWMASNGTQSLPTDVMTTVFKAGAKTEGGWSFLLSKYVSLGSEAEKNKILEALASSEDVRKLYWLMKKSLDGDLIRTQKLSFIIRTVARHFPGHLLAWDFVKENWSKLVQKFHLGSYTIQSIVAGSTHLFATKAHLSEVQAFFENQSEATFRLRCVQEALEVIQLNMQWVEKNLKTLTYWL

AT4 receptor [4] = target: T2, AT4 receptor; assay: 125I-AIV binding and competition, bovine coronary venular endothelial cell (CVEC) membranes
rat kidney = assay: Renal cortical blood flow (laser doppler) after infusion into the renal artery; assay type: in vivo
[5] = assay type: in vitro ADME, rat; conditions: for metabolic stability, in words: rat kidney membranes / homogenates
[6] = test system: vascular endothelial cells; assay: EDRF production in vascular endothelial cells; assay type: cell-based
Procedure: Bovine aortic endothelial cells were grown at 37° C. in 35 mm culture plates under 5% CO2 in air in Dulbecco's Modified Eagle's Medium (DMEM) supplemented with 5 μg/ml insulin and 10% (v/v) newborn bovine serum (NBBS). The medium was aspirated 10-12 hours after seeding and replaced with serum-free medium. The medium was again aspirated 10-12 hours later and replaced with either test or control medium. Control medium was DMEM with 5 µg/ml insulin and 2%, 5%, or 10% (v/v) NBBS as indicated. […] The medium was changed every 48 h (i.e., with supportive DMEM medium for the remainder of the experiment).

rat = assay: Systemic arterial blood pressure during renal artery infusion
AT4 receptor [7] = target: T2, AT4 receptor; assay: 125I-AIV binding, bovine aortic endothelial cell (BAEC) membranes; conditions: BAEC membranes preincubated 60 min at 22° C.
AT1 receptors = target: T3, AT1 receptors (Rattus norvegicus, UniProt P25095); assay: Effect of GTPγS on 125I-AII binding, rat vascular smooth muscle cell (RVSMC) membranes; conditions: dose-dependent
T3 construct: membrane fractions from rat vascular smooth muscle cells (RVSMC); endogenous in cells; host or cells: rat vascular smooth muscle cell line WKY IV, passage #17, membrane preparation
T3 sequence (P25095 1-359): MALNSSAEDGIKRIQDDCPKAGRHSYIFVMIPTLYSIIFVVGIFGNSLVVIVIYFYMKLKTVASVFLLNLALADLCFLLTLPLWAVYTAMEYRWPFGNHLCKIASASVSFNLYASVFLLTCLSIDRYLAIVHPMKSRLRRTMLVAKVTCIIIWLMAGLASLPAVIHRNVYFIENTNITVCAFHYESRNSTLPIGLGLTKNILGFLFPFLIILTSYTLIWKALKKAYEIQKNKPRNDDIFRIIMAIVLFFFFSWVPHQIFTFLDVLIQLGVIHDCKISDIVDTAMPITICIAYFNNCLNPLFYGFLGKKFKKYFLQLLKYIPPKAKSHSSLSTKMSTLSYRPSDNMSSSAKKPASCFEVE

[8] = bovine adrenal cortical AT4 receptor

**Q.** Which “overall hydrolysis under conditions of the assay” value ([1]; bovine adrenal cortical membrane binding assay) does the source give for “125I-AII: 125I-radiolabeled AII (DRVYIHPF; also: 125I radiolabel; UniProt P01019 25-32, looked up)” here?
**A.** less than 2%

**Q.** With `CC[C@H](C)[C@H](NC(=O)[C@@H](N)Cc1ccc(O)cc1)C(=O)N[C@@H](Cc1cnc[nH]1)C(=O)N1CCC[C@H]1C(=O)N[C@@H](Cc1ccccc1)C(=O)O` [AII(4-8)] (H-YIHPF-OH) as the compound, how does the Ki (AT1 receptor) read?
**A.** > 1000 nM

**Q.** What about the half-life [2] of the same compound?
**A.** 2.4 min

**Q.** With `CC[C@H](C)[C@H](NC(=O)[C@H](Cc1ccc(O)cc1)NC(=O)[C@@H](NC(=O)[C@H](CCCNC(=N)N)NC(=O)[C@@H](N)CC(=O)O)C(C)C)C(=O)N[C@@H](Cc1cnc[nH]1)C(=O)N1CCC[C@H]1C(=O)N[C@@H](Cc1ccccc1)C(=O)O` [AII, Asp1 Arg2 Val3 Tyr4 Ile5 His6 Pro7 Phe8, reference compound] as the compound, how does the half-life [2] read?
**A.** 4.4 min

**Q.** For `CC[C@H](C)[C@H](NC(=O)[C@H](Cc1ccc(O)cc1)NC(=O)[C@@H](NC(=O)[C@@H](N)CCCNC(=N)N)C(C)C)C(=O)N[C@@H](Cc1c[nH]cn1)C(=O)N1CCC[C@H]1C(=O)N[C@@H](Cc1ccccc1)C(=O)O` [AIII, Arg1 Val2 Tyr3 Ile4 His5 Pro6 Phe7, reference compound], which “decrease in AT4 receptor binding affinity relative to AIV (or stated parent peptide)” value (AT4 receptor [3]; [8]) is on record?
**A.** about 52 fold

**Q.** And the “increase in Ki over AIV” value (AT4 receptor [4])?
**A.** 20 fold

**Q.** What about the “hydrolysis in binding buffer” value ([1]; 4 h at 37° C., reverse phase HPLC) of the same compound?
**A.** less than 10%

**Q.** And the half-life [2]?
**A.** 2.0 min

**Q.** For `CC[C@H](C)[C@H](NC(=O)[C@H](Cc1ccc(O)cc1)NC(=O)[C@@H](N)C(C)C)C(=O)N[C@@H](Cc1cnc[nH]1)C(=O)N1CCC[C@H]1C(=O)N[C@@H](Cc1ccccc1)C(=O)O` [AIV, Val1 Tyr2 Ile3 His4 Pro5 Phe6], which “change in renal cortical blood flow, in words” value (rat kidney; infusion into rat renal artery, 100 pmol/min where stated) is on record?
**A.** profound and long-lasting increase in blood flow; also recorded: equally dramatic increase in flow

**Q.** What about the “agonist / antagonist activity at the AT4 receptor” value (rat kidney; judged from renal blood flow response compared with AIV) of the same compound?
**A.** full agonistic activity

**Q.** What about the “effect of preinfusion on agonist-induced change in renal blood flow” value (rat kidney; preinfusion before the named agonist) of the same compound?
**A.** completely blocked the constrictive action of AII

**Q.** What about the “metabolic stability, in words” value [5] of the same compound?
**A.** rapidly degraded

**Q.** And the “production of endothelial cell relaxing factor (EDRF)” value [6]?
**A.** stimulating production of endothelial cell relaxing factor (EDRF)

**Q.** What about the half-life [2] of the same compound?
**A.** 1.9 min

**Q.** What about the “effect on arterial blood pressure” value (rat) of the same compound?
**A.** not accompanied by alterations in mean arterial pressure

**Q.** With `CC[C@H](C)[C@H](NC)C(=O)N[C@@H](Cc1ccc(O)cc1)C(=O)N[C@H](C(=O)N[C@@H](Cc1c[nH]cn1)C(=O)N1CCC[C@H]1C(=O)N[C@@H](Cc1ccccc1)C(=O)O)[C@@H](C)CC` [CH3--I1 YIHPF] (H-[NMeI]YIHPF-OH) as the compound, how does the “decrease in AT4 receptor binding affinity relative to AIV (or stated parent peptide)” value (AT4 receptor [3]; [8]) read?
**A.** 67 fold

**Q.** With `CC[C@H](C)[C@H](NC(=O)[C@H](Cc1ccc(O)cc1)NC(=O)[C@@H](N)CC(=O)O)C(=O)N[C@@H](Cc1c[nH]cn1)C(=O)N1CCC[C@H]1C(=O)N[C@@H](Cc1ccccc1)C(=O)O` [DYIHPF] (H-DYIHPF-OH) as the compound, how does the Kd (AT4 receptor [3]; read-out: Kd of analog for the AT4 receptor) read?
**A.** > 1000 nM

**Q.** Which “effect on 125I-AIV binding to AT4 receptors” value (AT4 receptor [3]) does the source give for `Nc1nc2c(ncn2[C@@H]2O[C@H](COP(=O)(O)OP(=O)(O)OP(O)(O)=S)[C@@H](O)[C@H]2O)c(=O)[nH]1` [GTPγS] here?
**A.** not altered

**Q.** What about the “effect on 125I-AIV binding to AT4 receptors” value (AT4 receptor [7]) of the same compound?
**A.** no effect; also recorded: did not inhibit (or alter) binding

**Q.** What about the “effect on 125I-AII binding to AT1 receptors” value (AT1 receptors) of the same compound?
**A.** inhibited

**Q.** With `CC(C)[C@H](N)CN[C@@H](Cc1ccc(O)cc1)C(=O)N[C@H](CN[C@@H](Cc1c[nH]cn1)C(=O)N1CCC[C@H]1C(=O)N[C@@H](Cc1ccccc1)C(=O)O)C(C)C` [Val1 Val3 AIV, ^+ H3 N-Val(CH2 NH)Tyr-Val(CH2 NH)-His-Pro-Phe-COO--] as the compound, how does the “metabolic stability, in words” value ([5]; listed as Val(I)Val(3) AIV) read?
**A.** totally resistant to enzymatic degradation

**Q.** And the “metabolic stability, in words” value ([5]; listed as divalinal AIV)?
**A.** enhanced metabolic stability

**Q.** What about the peptide remaining intact ([5]; rat kidney membranes, room temperature, after 4 hr of incubation) of the same compound?
**A.** 100%

**Q.** And the “effect on arterial blood pressure” value (rat)?
**A.** did not alter blood pressure or renal blood flow

**Q.** For CGP42112A [reference compound], which Ki (AT1 receptor; bovine adrenal cortical membranes) is on record?
**A.** > 100000 nM

**Q.** With “Phe2 Tyr6 AIV: positions of Phe and Tyr reversed, SEQ. ID. NO. 36 (VPIHYF)” as the compound, how does the “AT4 receptor binding affinity, in words” value (AT4 receptor [3]; [8]) read?
**A.** very low binding affinity
